Tests used:
Iris pseudocarus = assay: survival of plants in the presence of 2,4-D; assay type: in vivo; conditions: 5 mg/l 2,4-D
plant = conditions: cited from earlier work
Lupinus luteus = assay: toxicity test: toluene on growth of Lupinus luteus; conditions: hydroponic, 0-3000 mg per liter tested, all other exposed plants dead
yellow lupine = assay: plant growth with toluene during hydroponic cultivation; conditions: non-inoculated plants
Pseudomonas sp. VM422 = assay: zinc resistance phenotype, MIC on Tris minimal medium; assay type: cell-based; conditions: strain VM422

O=C(O)COc1ccc(Cl)cc1Cl [2,4-D, 2,4-dichlorophenoxyacetic acid]
Dead plants, Non-inoculated plants + 2,4-D (Iris pseudocarus): 75% | Healthy plants, Non-inoculated plants + 2,4-D (Iris pseudocarus): 25%

ClC(Cl)=C(Cl)Cl [PER]
Fate in plant (toxic, build up, or volatile) (plant): Volatile

ClC=C(Cl)Cl [TCE, tri-chloro-ethylene]
Fate in plant (toxic, build up, or volatile) (plant): Volatile, Build-up

Cc1ccccc1 [toluene]
toluene concentration at which the exposed plant was not dead at the end of the third week (Lupinus luteus): 100 mg per liter | toluene dose at which non-inoculated controls showed growth reduction (yellow lupine): 100 mg/L

[Zn] [zinc]
MIC value for zinc (Pseudomonas sp. VM422): 20 mM
